We go through 7 compounds from ChEMBL document CHEMBL1629664, “Oral and parenteral therapeutic options for outpatient urinary infections caused by enterobacteriaceae producing CTX-M extended-spectrum beta-lactamases” (2009).

Assay type in all cases: functional
Assay [1] concerns Enterobacteriaceae. As to the kind of experiment: Antibacterial activity against beta-lactamase SHV or TEM ESBL-producing Enterobacteriaceae assessed as percent susceptible isolates by broth microdilution method. In general terms: Dilution methods test growth across graded concentrations, often in twofold steps.
Assay [2] deals with Enterobacteriaceae. As to the kind of experiment: Antibacterial activity against beta-lactamase CTX-M ESBL-producing Enterobacteriaceae by broth microdilution method.
For assay [3], the system named is Enterobacteriaceae. In words: Antibacterial activity against beta-lactamase SHV or TEM ESBL-producing Enterobacteriaceae by broth microdilution method.
The subject of assay [4] is Enterobacteriaceae. As to the kind of experiment: Antibacterial activity against beta-lactamase CTX-M ESBL-producing Enterobacteriaceae assessed as percent susceptible isolates by broth microdilution method.
In assay [5] the test system is Enterobacteriaceae. In words: Antibacterial activity against beta-lactamase CTX-M ESBL-producing Enterobacteriaceae by agar dilution method. For orientation: In agar dilution, organisms are placed on agar that contains the substance at set levels.
Assay [6] deals with Enterobacteriaceae. In words: Antibacterial activity against beta-lactamase SHV or TEM ESBL-producing Enterobacteriaceae by agar dilution method.
In assay [7] the test system is Enterobacteriaceae. In words: Antibacterial activity against beta-lactamase CTX-M ESBL-producing Enterobacteriaceae assessed as percent susceptible isolates by agar dilution method.
The subject of assay [8] is Enterobacteriaceae. As to the kind of experiment: Antibacterial activity against beta-lactamase SHV or TEM ESBL-producing Enterobacteriaceae assessed as percent susceptible isolates by agar dilution method.
For another assay, the system named is Klebsiella sp. As to the kind of experiment: Antibacterial activity against beta-lactamase ESBL-producing Klebsiella sp. assessed as percent susceptible isolates by broth microdilution method.
A further assay has as its system Proteus mirabilis. In words: Antibacterial activity against beta-lactamase ESBL-producing Proteus mirabilis assessed as percent susceptible isolates by broth microdilution method.
The test system of assay [9] is Escherichia coli. In words: Antibacterial activity against beta-lactamase ESBL-producing Escherichia coli assessed as percent susceptible isolates by broth microdilution method.
Assay [10] concerns Escherichia coli. As to the kind of experiment: Antibacterial activity against beta-lactamase ESBL-producing Escherichia coli by broth microdilution method.
For assay [11], the system named is Enterobacteriaceae. In words: Antibacterial activity against beta-lactamase CTX-M ESBL-producing Enterobacteriaceae assessed as percent susceptible isolates by twofold dilution method.
The test system of assay [12] is Enterobacteriaceae. In words: Antibacterial activity against beta-lactamase SHV or TEM ESBL-producing Enterobacteriaceae assessed as percent susceptible isolates by twofold dilution method.
Assay [13] relates to Enterobacteriaceae. In words: Antibacterial activity against beta-lactamase SHV or TEM ESBL-producing Enterobacteriaceae by twofold dilution method.
The subject of assay [14] is Enterobacteriaceae. As to the kind of experiment: Antibacterial activity against beta-lactamase CTX-M ESBL-producing Enterobacteriaceae by twofold dilution method.
The test system of assay [15] is Enterobacteriaceae. As to the kind of experiment: Antibacterial activity against beta-lactamase SHV or TEM ESBL-producing Enterobacteriaceae assessed as percent susceptible isolates by twofold dilution method in presence of beta-lactamase inhibitor clavulanate.
Assay [16] relates to Enterobacteriaceae. In words: Antibacterial activity against beta-lactamase SHV or TEM ESBL-producing Enterobacteriaceae by twofold dilution method in presence of beta-lactamase inhibitor clavulanate.
The test system of assay [17] is Enterobacteriaceae. In words: Antibacterial activity against beta-lactamase CTX-M ESBL-producing Enterobacteriaceae assessed as percent susceptible isolates by twofold dilution method in presence of beta-lactamase inhibitor clavulanate.
For assay [18], the system named is Enterobacteriaceae. In words: Antibacterial activity against beta-lactamase CTX-M ESBL-producing Enterobacteriaceae by twofold dilution method in presence of beta-lactamase inhibitor clavulanate.

Each structure is given as a SMILES string. Converted amounts (≈) assume the structure as drawn.

On to `O=C1CN(/N=C/c2ccc([N+](=O)[O-])o2)C(=O)N1` [NITROFURANTOIN], for which the Activity stood at 45.5% in the assay with Enterobacteriaceae [1] and 73.9% in the assay with Enterobacteriaceae [4]. The MIC50 (usually the lowest concentration that inhibits either 50% of growth or 50% of the strains tested, depending on the study) in the assay on Enterobacteriaceae [2] was found to be 16 µg/mL (≈ 67.2 µM); in the assay with Enterobacteriaceae [3], 64 µg/mL (≈ 269 µM). In addition, the MIC90 against Enterobacteriaceae [2] and with Enterobacteriaceae [3] was 64 µg/mL (≈ 269 µM) in each case.
Turning to `C[C@@H]1O[C@@H]1P(=O)(O)O` [FOSFOMYCIN], the MIC50 is 0.5 µg/mL (≈ 3.62 µM) in the assay with Enterobacteriaceae [5] and 4 µg/mL (≈ 29 µM) against Enterobacteriaceae [6]. Besides, the MIC90 – broadly, the lowest concentration that inhibits either 90% of growth or 90% of the strains tested, depending on the study – worked out at 64 µg/mL (≈ 464 µM) against Enterobacteriaceae [5] and 8 µg/mL (≈ 57.9 µM) with Enterobacteriaceae [6]. Besides, the Activity in the assay with Enterobacteriaceae [7] was found to be 91.3%; in the assay on Enterobacteriaceae [8], 100%.
Turning to `C[C@@H](O)[C@H]1C(=O)N2C(C(=O)O)=C(S[C@@H]3CN[C@H](C(=O)Nc4cccc(C(=O)O)c4)C3)[C@H](C)[C@H]12` [ERTAPENEM], the Activity with Klebsiella sp., with Enterobacteriaceae [1], in the assay with Proteus mirabilis, in the assay with Escherichia coli [9] and with Enterobacteriaceae [4] was 100% throughout. Moreover, the MIC50 is 0.06 µg/mL (≈ 0.126 µM) in the assay with Enterobacteriaceae [2] and 0.12 µg/mL (≈ 0.252 µM) against Enterobacteriaceae [3]. Besides, the MIC90 in the assay on Enterobacteriaceae [2] was 0.25 µg/mL (≈ 0.526 µM); against Escherichia coli [10] it was 0.06 µg/mL (≈ 0.126 µM); in the assay on Enterobacteriaceae [3] it was 1 µg/mL (≈ 2.1 µM).
With `C=CC1=C(C(=O)O)N2C(=O)[C@@H](NC(=O)/C(=N\O)c3csc(N)n3)[C@H]2SC1` [CEFDINIR], the Activity with Enterobacteriaceae [11] and with Enterobacteriaceae [12] was 0% in each case. The MIC50 amounted to 4 µg/mL (≈ 10.1 µM) against Enterobacteriaceae [13] and 16 µg/mL (≈ 40.5 µM) in the assay on Enterobacteriaceae [14]. Besides, the MIC90 against Enterobacteriaceae [13] and with Enterobacteriaceae [14] was 16 µg/mL (≈ 40.5 µM) throughout.
Turning to `O=C(O)c1cn(C2CC2)c2cc(N3CCNCC3)c(F)cc2c1=O` [CIPROFLOXACIN], the Activity is 36.4% in the assay on Enterobacteriaceae [1] and 4.3% in the assay with Enterobacteriaceae [4]. The MIC50 against Enterobacteriaceae [2] and with Enterobacteriaceae [3] was 32 µg/mL (≈ 96.6 µM) in each case. The MIC90 against Enterobacteriaceae [2] and in the assay on Enterobacteriaceae [3] was 32 µg/mL (≈ 96.6 µM) throughout.
`C[C@H]1c2cccc(O)c2C(=O)C2=C(O)[C@]3(O)C(=O)C(C(N)=O)=C(O)[C@@H](N(C)C)[C@@H]3[C@@H](O)[C@@H]21.O` [DOXYCYCLINE]: the Activity was 18.2% in the assay on Enterobacteriaceae [1] and 10.9% in the assay with Enterobacteriaceae [4]. The MIC50 in the assay with Enterobacteriaceae [2] and against Enterobacteriaceae [3] was 16 µg/mL throughout. Moreover, the MIC90 with Enterobacteriaceae [2] and in the assay on Enterobacteriaceae [3] was 16 µg/mL each time.
In the case of `CC1(C)S[C@@H]2[C@H](NC(=O)[C@H](N)c3ccc(O)cc3)C(=O)N2[C@H]1C(=O)O` [AMOXICILLIN], the Activity is listed as 45.5% with Enterobacteriaceae [15] and 10.9% in the assay with Enterobacteriaceae [17]. Moreover, the MIC50 in the assay with Enterobacteriaceae [16] worked out at 32 µg/mL; in the assay on Enterobacteriaceae [13], 4 µg/mL (≈ 10.9 µM); in the assay with Enterobacteriaceae [18], 32 µg/mL; against Enterobacteriaceae [14] it was 4 µg/mL (≈ 10.9 µM). In addition, the MIC90 in the assay on Enterobacteriaceae [16] turned out to be 32 µg/mL; against Enterobacteriaceae [13], 4 µg/mL (≈ 10.9 µM); in the assay on Enterobacteriaceae [18], 32 µg/mL; in the assay with Enterobacteriaceae [14], 4 µg/mL (≈ 10.9 µM).
